According to ChEMBL document CHEMBL1201862, “PubChem BioAssay data set” (2004):
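Exposure lasted 48 hours, with cells grown in 96-well plates and compounds tested at five concentrations. GI50 marks 50% less growth.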 Active and inactive are the calls of the source. Rule as the data show it: active = GI50 up to about 1.1 µM and inactive = higher.

Columns and labels:
Test in all cases: DTP human tumour cell line panel, 48 h
MOLT-4 = tested on: MOLT-4
HOP-92 = tested on: HOP-92
OVCAR-3 = tested on: OVCAR-3
RPMI-8226 = tested on: RPMI-8226
SNB-19 = tested on: SNB-19
SF-268 = tested on: SF-268
KM-20L2 = tested on: KM-20L2
TK-10 = tested on: TK-10
SW-620 = tested on: SW-620
SK-MEL-2 = tested on: SK-MEL-2
M14 = tested on: M14
HCC 2998 = tested on: HCC 2998
OVCAR-4 = tested on: OVCAR-4
HT-29 = tested on: HT-29
HOP-62 = tested on: HOP-62
SK-MEL-28 = tested on: SK-MEL-28
HL-60 = tested on: HL-60
RXF 393 = tested on: RXF 393
U-251 = tested on: U-251
NCI-H522 = tested on: NCI-H522

Measured: GI50

COC(=O)C1=C(C)N2CCCOC2(C)C(C(=O)OC)C1c1cccc(Cl)c1 (centres undefined)
inactive: MOLT-4 16.7 µM | HOP-92 19.1 µM | OVCAR-3 22.2 µM | RPMI-8226 14.3 µM | SNB-19 42.3 µM | SF-268 32.8 µM | KM-20L2 24.4 µM | TK-10 53 µM | SW-620 > 100 µM | SK-MEL-2 18.1 µM | M14 20 µM | HCC 2998 35.3 µM | OVCAR-4 56.5 µM | HT-29 22.2 µM | HOP-62 20.7 µM | SK-MEL-28 21.7 µM | HL-60 16.4 µM | RXF 393 33.1 µM

CCCCC#CS(=O)(=O)C(F)(F)F
inactive: U-251 76.6 µM | MOLT-4 33.1 µM | HOP-92 34.1 µM | NCI-H522 36.1 µM | OVCAR-3 > 56.4 µM | RPMI-8226 47.4 µM | SNB-19 > 90.2 µM | SF-268 > 72.4 µM | KM-20L2 81.5 µM | SW-620 > 100 µM | SK-MEL-2 > 36.8 µM | HCC 2998 > 31.6 µM | OVCAR-4 27.9 µM | HT-29 22.4 µM | HOP-62 > 61.5 µM | SK-MEL-28 > 60 µM | HL-60 23.2 µM | RXF 393 20.4 µM

O=C1/C(=C/c2ccc(Cl)cc2)N=C(c2ccccc2)N1/N=C/c1ccccc1O
inactive: U-251 5.27 µM | MOLT-4 12.6 µM | HOP-92 11.5 µM | NCI-H522 13.4 µM | OVCAR-3 9.1 µM | RPMI-8226 6.89 µM | SNB-19 > 100 µM | SF-268 14.8 µM | TK-10 1.68 µM | SW-620 > 100 µM | SK-MEL-2 17.1 µM | M14 2.84 µM | OVCAR-4 4.57 µM | HT-29 21.1 µM | HOP-62 1.87 µM | SK-MEL-28 15.1 µM | HL-60 28.1 µM | RXF 393 11.4 µM
